# Laboratory results as given in article PMC11879040, “Advancing systemic toxicity risk assessment: Evaluation of a NAM-based toolbox approach” (Toxicological Sciences, 2024).
# Like-named read-outs stand apart in the source and are kept apart here.
# What was measured:
# [1] = molecular target: Glucocorticoid receptor, NR3C1 (h) (Homo sapiens, UniProt P04150); assay: IPP NR3C1 binding (agonist radioligand); conditions: IPP screening at 10 uM; control dexamethasone
# [2] = tested on: dog; conditions: ref ToxRefDB/Paul-Friedman et al. (2020)/regulatory opinions, cited from earlier work
# [3] = cited from earlier work
# [4] = molecular target: T1, Progesterone receptor, PGR (h) (Homo sapiens, UniProt P06401); assay: biochemical; type: biochemical; conditions: agonist, progesterone for control
# T1 sequence (P06401 1-933): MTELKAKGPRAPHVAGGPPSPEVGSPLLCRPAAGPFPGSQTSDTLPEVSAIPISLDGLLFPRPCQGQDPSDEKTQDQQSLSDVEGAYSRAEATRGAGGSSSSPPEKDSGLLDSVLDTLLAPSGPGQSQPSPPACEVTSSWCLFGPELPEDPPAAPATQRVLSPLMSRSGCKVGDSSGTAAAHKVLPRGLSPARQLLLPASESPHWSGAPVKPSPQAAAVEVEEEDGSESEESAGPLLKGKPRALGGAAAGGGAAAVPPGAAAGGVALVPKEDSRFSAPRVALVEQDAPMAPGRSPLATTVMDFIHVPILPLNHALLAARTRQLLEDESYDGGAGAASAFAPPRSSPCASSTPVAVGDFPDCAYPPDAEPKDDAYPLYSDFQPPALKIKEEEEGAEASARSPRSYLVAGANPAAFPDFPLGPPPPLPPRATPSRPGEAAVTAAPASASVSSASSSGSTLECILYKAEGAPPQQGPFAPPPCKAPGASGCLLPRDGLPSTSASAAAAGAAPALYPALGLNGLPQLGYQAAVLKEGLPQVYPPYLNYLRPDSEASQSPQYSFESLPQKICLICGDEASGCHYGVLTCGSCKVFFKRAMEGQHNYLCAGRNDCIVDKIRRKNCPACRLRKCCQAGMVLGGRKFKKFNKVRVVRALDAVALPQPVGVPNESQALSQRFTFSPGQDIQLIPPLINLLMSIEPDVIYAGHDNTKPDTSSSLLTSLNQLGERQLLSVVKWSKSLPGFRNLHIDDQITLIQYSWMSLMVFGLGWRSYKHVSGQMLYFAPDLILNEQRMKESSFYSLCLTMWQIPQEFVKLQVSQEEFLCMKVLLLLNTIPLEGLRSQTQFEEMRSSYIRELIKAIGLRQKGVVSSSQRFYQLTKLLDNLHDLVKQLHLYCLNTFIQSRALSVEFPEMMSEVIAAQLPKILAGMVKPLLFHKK
# [5] = molecular target: T1, Progesterone receptor, PGR (h); assay: IPP PGR coactivator recruitment (antagonist); type: biochemical; conditions: ligand progesterone
# [6] = molecular target: T2, Peroxisome proliferator-activated receptor gamma, PPARG (h) (Homo sapiens, UniProt P37231); assay: IPP PPARG coactivator recruitment (antagonist); type: biochemical; conditions: 10 uM, ligand rosiglitazone
# T2 sequence (P37231 1-505): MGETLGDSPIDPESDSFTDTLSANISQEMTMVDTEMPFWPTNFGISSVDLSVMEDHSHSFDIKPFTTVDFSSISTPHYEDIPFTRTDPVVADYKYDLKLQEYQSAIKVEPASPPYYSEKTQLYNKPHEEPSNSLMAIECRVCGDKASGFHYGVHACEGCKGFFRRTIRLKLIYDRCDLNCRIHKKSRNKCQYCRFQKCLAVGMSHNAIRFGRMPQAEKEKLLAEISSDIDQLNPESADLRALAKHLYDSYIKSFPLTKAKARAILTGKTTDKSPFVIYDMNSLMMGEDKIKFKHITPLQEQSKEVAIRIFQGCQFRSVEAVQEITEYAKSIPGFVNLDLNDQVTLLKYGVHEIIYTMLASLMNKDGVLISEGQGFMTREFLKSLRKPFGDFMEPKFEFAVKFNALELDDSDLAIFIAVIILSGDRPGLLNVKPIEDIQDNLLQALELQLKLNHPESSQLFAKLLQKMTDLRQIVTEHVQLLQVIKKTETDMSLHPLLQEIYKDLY
# [7] = molecular target: T3, Thyroid hormone receptor beta, THRB (h) (Homo sapiens, UniProt P10828); assay: IPP THRB coactivator recruitment (agonist); type: biochemical; conditions: 10 uM, T3
# T3 construct: purchased Eurofins Cerep (SafetyScreen44-based IPP panel)
# [8] = molecular target: T2, Peroxisome proliferator-activated receptor gamma, PPARG (h); assay: IPP PPARG coactivator recruitment (agonist); type: biochemical; conditions: 10 uM, rosiglitazone for control
# [9] = molecular target: T4, Peroxisome proliferator-activated receptor alpha, PPARA (h) (Homo sapiens, UniProt Q07869); assay: IPP PPARA coactivator recruitment (antagonist); type: biochemical; conditions: 10 uM; antagonist; ligand GW 7647
# T4 sequence (Q07869 1-468): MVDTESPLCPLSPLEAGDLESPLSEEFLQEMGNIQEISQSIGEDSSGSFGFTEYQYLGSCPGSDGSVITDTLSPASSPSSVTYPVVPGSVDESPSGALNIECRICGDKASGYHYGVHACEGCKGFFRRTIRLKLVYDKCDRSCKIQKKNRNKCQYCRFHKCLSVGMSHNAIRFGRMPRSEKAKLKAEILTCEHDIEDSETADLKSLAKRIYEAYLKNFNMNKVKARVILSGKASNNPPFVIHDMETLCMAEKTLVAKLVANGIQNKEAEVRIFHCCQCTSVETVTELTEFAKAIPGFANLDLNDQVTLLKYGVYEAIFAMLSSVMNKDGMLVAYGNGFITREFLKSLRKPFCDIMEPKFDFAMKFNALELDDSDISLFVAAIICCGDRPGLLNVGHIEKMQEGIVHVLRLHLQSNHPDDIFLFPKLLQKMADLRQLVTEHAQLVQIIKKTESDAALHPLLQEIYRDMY
# [10] = human, Oral 100 mg, Tablet, 27 healty male, Fasted, validation, ref Shank, R.P. et al. (2005) Epilepsy Research 63:103-112
# [11] = human, Oral 200 mg, Tablet, 25 healty male, Fasted, calibration, ref Shank, R.P. et al. (2005) Epilepsy Research 63:103-112
# [12] = human, Oral 400 mg, Tablet, 26 healty male, Fasted, validation, ref Shank, R.P. et al. (2005) Epilepsy Research 63:103-112
# [13] = Oral 500 mg tablet, Preparation A: non-shellaced core, sugar coated, fasted, 5 healthy male, calibration, ref Hart 1975
# [14] = Oral 500 mg tablet, Preparation B: shellaced core, sugar coated, fasted, 5 healthy male, calibration, ref Hart 1975
# [15] = Oral 500 mg tablet, Preparation C: film-coated, fasted, 5 healthy male, calibration, ref Hart 1975
# [16] = human, Oral 500 mg repeat every 12 h, 2 x 250 mg tablets (Terramycin), 4 healthy male, Fasted, measured data for day 1 and day 7, validation, ref GREEN, BROWN & CALVERT, European Journal of Clinical Pharmacology (1979) 10:245-250, cited in EPA (1987)
# [17] = human, Oral 500 mg, Preparation D: tablet, film-coated (Oxytetracycline hydrochloride), 5 healthy male, Fasted, calibration, ref HART, Br. J. clin. Pharmac. (1975), 2, 277-280
# [18] = human, Oral 500 mg, Preparation E: Capsule (Oxytetracycline hydrochloride), 5 healthy male, Fasted, calibration, ref HART, Br. J. clin. Pharmac. (1975), 2, 277-280
# Chain of Glucocorticoid receptor, NR3C1 (h) (P04150 whole entry): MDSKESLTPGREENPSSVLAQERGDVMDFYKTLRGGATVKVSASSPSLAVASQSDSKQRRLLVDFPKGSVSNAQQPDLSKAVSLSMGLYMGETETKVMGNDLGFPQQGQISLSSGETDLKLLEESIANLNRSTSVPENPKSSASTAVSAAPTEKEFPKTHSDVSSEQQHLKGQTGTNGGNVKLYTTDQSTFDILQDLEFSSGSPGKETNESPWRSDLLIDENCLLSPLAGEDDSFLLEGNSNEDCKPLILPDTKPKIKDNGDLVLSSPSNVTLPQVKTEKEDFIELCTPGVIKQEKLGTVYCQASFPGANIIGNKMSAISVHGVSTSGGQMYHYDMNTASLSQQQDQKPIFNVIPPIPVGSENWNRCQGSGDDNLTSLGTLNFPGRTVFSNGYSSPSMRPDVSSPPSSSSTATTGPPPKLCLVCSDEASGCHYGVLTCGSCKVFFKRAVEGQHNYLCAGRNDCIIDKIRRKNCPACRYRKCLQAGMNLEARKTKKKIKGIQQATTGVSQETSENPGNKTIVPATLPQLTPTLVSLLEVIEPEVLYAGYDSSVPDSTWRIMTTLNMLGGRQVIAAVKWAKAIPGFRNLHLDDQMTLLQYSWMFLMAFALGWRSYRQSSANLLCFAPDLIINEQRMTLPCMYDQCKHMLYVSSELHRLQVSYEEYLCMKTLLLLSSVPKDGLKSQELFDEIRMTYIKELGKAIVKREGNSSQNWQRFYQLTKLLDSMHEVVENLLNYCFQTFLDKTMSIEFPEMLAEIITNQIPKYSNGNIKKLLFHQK
# T3 sequence (P10828 whole entry): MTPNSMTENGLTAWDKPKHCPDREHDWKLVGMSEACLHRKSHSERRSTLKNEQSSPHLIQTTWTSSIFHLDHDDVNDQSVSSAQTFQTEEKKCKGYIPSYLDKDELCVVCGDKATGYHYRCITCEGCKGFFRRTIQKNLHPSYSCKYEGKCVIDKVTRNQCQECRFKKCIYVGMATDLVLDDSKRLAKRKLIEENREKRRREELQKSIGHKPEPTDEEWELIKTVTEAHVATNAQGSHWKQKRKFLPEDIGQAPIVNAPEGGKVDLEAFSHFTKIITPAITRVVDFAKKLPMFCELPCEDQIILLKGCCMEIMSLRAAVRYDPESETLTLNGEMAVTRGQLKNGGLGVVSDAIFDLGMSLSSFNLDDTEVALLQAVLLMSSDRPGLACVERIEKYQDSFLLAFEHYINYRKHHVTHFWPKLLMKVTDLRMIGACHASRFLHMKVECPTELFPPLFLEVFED
compound,measurement,setting,value
"CCOP(=S)(OCC)Oc1nc(Cl)c(Cl)cc1Cl [Chlorpyrifos, O,O-Diethyl O-(3,5,6-trichloropyridin-2-yl) phosphorothioate]",Specific binding,[1],29.4%
same,PoD (NOAEL),"[2]; 2 years, inhibition of plasma and erythrocyte ChE",0.01 mg/kg bw/day
"CC1(C)O[C@@H]2[C@@H](CO[C@@]3(COS(N)(=O)=O)OC(C)(C)O[C@@H]23)O1 [Topiramate, [(3aS,5aR,8aR,8bS)-2,2,7,7-Tetramethyltetrahydro-2H,3aH,7H-bis[1,3]dioxolo[4,5-b:4',5'-d]pyran-3a-yl]methyl sulfamate (non-preferred name)]",Reported AUC0-t,[3]; [10],50540 ng·h/mL
same,Reported cmax,[3]; [10],1.3281 µg/mL
same,Reported tmax,[3]; [10],4 h
same,Reported AUC0-t,[3]; [11],145000 ng·h/mL
same,Reported cmax,[3]; [11],3.1578 µg/mL
same,Reported tmax,[3]; [11],3 h
same,Reported AUC0-t,[3]; [12],229000 ng·h/mL
same,Reported cmax,[3]; [12],6.5205 µg/mL
same,Reported tmax,[3]; [12],2 h
same,plasma half-life,[3]; ref not given,over 20 h
same,"IPP screening %, Coactivator recruitment",[4]; 100 uM,0.5%
same,"IPP screening %, Coactivator recruitment",[5]; 100 uM,2.2%
mixture of 2- and 3-tert-butyl-4-methoxyphenol [Butylated Hydroxyanisole],"IPP screening %, Coactivator recruitment",[6],1.4%
same,"IPP screening %, Coactivator recruitment",[7],1.0%
same,"IPP screening %, Coactivator recruitment",[4]; 10 uM,0.1%
same,Specific binding,[1],-0.5%
same,"IPP screening %, Coactivator recruitment",[5]; 10 uM,4.0%
same,"IPP screening %, Coactivator recruitment",[8],-0.1%
same,"IPP screening %, Coactivator recruitment",[9],4.4%
"(4S,4aR,5S,5aR,6S,12aS)-4-(Dimethylamino)-3,5,6,10,12,12a-hexahydroxy-6-methyl-1,11-dioxo-1,4,4a,5,5a,6,11,12a-octahydrotetracene-2-carboxamide--hydrogen chloride (1/1) [Oxytetracycline hydrochloride]","IPP screening %, Coactivator recruitment",[6],31.2%
same,"IPP screening %, Coactivator recruitment",[7],-3.0%
same,Reported AUC0-t,[3]; [13],5731 ng·h/mL
same,Reported cmax,[3]; [13],1.2 µg/mL
same,Reported tmax,[3]; [13],2 h
same,Reported AUC0-t,[3]; [14],4455 ng·h/mL
same,Reported cmax,[3]; [14],0.88 µg/mL
same,Reported tmax,[3]; [14],3 h
same,Reported AUC0-t,[3]; [15],7198 ng·h/mL
same,Reported cmax,[3]; [15],1.43 µg/mL
same,Reported tmax,[3]; [15],3 h
same,Reported AUC0-t,[3]; [16],79420 ng·h/mL
same,Reported cmax,[3]; [16],2.25 µg/mL
same,Reported tmax,[3]; [16],74 h
same,Reported AUC0-t,[3]; [17],8279 ng·h/mL
same,Reported cmax,[3]; [17],1.51 µg/mL
same,Reported tmax,[3]; [17],2 h
same,Reported AUC0-t,[3]; [18],7800 ng·h/mL
same,Reported cmax,[3]; [18],1.45 µg/mL
same,Reported tmax,[3]; [18],3 h
same,PoD (NOAEL),"[2]; 12 months (dog), 24 months (rat)",50 mg/kg bw/day
same,"IPP screening %, Coactivator recruitment",[8],-0.1%
same,"IPP screening %, Coactivator recruitment",[9],42.3%
